Source: US7511167B2, “Two-photon dyes for real-time imaging of lipid rafts” (Korea University Industry and Academy Cooperation Foundation, priority 2006, dated 2009)
Where “and” joins values, the source holds several entries; their conditions need not be identical. Equal entries are not always repeated. Where two headings read alike, the source gives them in different places.

Experiments:
[1] = Reflection tests of polarity of liposomes (Test Example 3); format: physicochemical; settings: for fluorescence wavelength (peaks): DOPC liposomes; for maximum fluorescence wavelength: DPPC liposomes
Protocol: Three kinds of liposomes having different fluidity (polarity) were prepared to examine how much the two-photon dyes prepared in Example 1 and Comparative Example 1 reflected the polarity of the liposomes. Specifically, DOPC liposomes were prepared from 1,2-dioleoyl-sn-glycerol-3-phosphocholine (DOPC) having unsaturated fatty acids so as to reflect the fluidity of phospholipids of plasma membranes. The DOPC liposomes were relatively fluid. DOPC/Sphingo/Chol liposomes were composed of DOPC, sphingomyelin and cholesterol in the same ratio so as to simultaneously reflect phospholipids and lipid rafts. DPPC liposomes were prepared from 1,2-dipalmitoyl-sn-glycerol-3-phosphocholine (DPPC) so as to reflect lipid rafts. The DPPC liposomes were in a gel state and had lowest fluidity. Next, the three kinds of liposomes were stained with Laurdan and TPD1, and their spectral properties were examined. Referring to FIGS. 3a (Laurdan) and 3b (TPD1), the maximum one-photon absorption wavelengths of Laurdan and TPD1 were in the range of 360-395 nm, regardless of the kind of the liposomes. However, the fluorescence intensity of the liposomes increased with the hydrophobicity of the liposomes in the order: DOPC<DOPC/Sphingo/Chol<DPPC. […] Referring to FIG. 3c, the maximum fluorescence wavelength of Laurdan in DPPC is 440 nm and the fluorescence spectrum of Laurdan in DOPC is broader.
In the meanwhile, the fluorescence wavelength bands of Laurdan in DOPC/Sphingo/Chol and DPPC were confirmed to overlap almost completely. […] In contrast, TPD1 prepared in Example 1 emitted fluorescence of 442 nm in DPPC and fluorescence of 486 nm in DOPC (FIG. 3d). In addition, the fluorescence spectrum of TPD1 in the DOPC/Sphingo/Chol liposomes is broad and almost the same as the sum of the spectra in the DPPC and DOPC liposomes.
On the other hand, the different kinds of liposomes were stained with TPD4 prepared in Example 4, and their fluorescence spectra were examined. Referring to FIG. 4, the fluorescence intensity of the fluid DOPC liposomes (in a hydrophilic environment) was ⅛ of that of the DPPC liposomes and about 1/6.5 of that of the DOPC/Sphingo/Chol liposomes.

[2] = Reflection tests of polarity of solvents, fluorescence spectra (Test Example 1); format: physicochemical
Protocol: Time-resolved fluorescence (TRF) spectra of the two-photon dyes prepared in Comparative Example 1 and Example 1 were measured to examine changes in the one-photon fluorescence wavelength of the dyes according to the polarity of solvents. In this test, hexane, DMF, ethanol and water were used as solvents. The polarity of the solvents increases in the order: hexane<DMF<ethanol<water. […] Since Laurdan has a long hydrocarbon tail, the dye molecules surrounded by the adjacent dye molecules were placed in a hydrophobic environment, and as a result, a blue shift was observed. […] From these observations, it can be concluded that Laurdan is not suitable for use in real-time imaging of lipid rafts.
On the other hand, time-resolved fluorescence (TRF) spectra of the two-photon dye (TPD4) prepared in Example 4 were measured to examine changes in the one-photon fluorescence wavelength of the dye according to the polarity of solvents. In this test, THF, DMF, ethanol and ethanol/water were used as solvents. The polarity of the solvents increases in the order: THF<DMF<ethanol<ethanol/water. […] As mentioned previously, the reason for this is because the fluorescence quantum yield and fluorescence lifetime of TPD4 in a hydrophilic environment were decreased drastically. Therefore, lipid rafts can be directly observed due to the difference in fluorescence intensity.

[3] = cited from earlier work
[4] = Spectroscopic measurements of the dyes in four solvents (Test Example 2); format: physicochemical; settings: for quantum yield in water relative to that in ethanol: water versus ethanol
Protocol: The two-photon dyes prepared in Example 1 and Comparative Example 1 were dissolved in four solvents (hexane, DMF, ethanol and water), respectively. The one-photon maximum absorption wavelength (λmax), one-photon maximum emission wavelength (λ^f1max), two-photon maximum absorption wavelength (λ^(2)max), quantum yield (Φ) and two-photon absorption efficiency (δmax) of the solutions were measured, and the results are shown in Table 1. The absorption spectra were measured on a Hewlett-Packard 8453 diode array spectrophotometer. The fluorescence spectra were obtained with an Aminco Bowman series 2 luminescence spectrometer. The two-photon absorption efficiency means a maximum value of a two-photon cross section (δTPA). The two-photon cross section can be calculated by the following equation 1: […]
wherein the subscripts s and r represent sample and reference molecules, respectively, δ represents the two-photon cross section, S represents the strength of signals collected by a CCD detector, Φ represents the fluorescence quantum efficiency, φ represents the total fluorescence collection efficiency of an experimental system, c represents the number density of the molecules within each of the solutions, and δr represents the two-photon cross section of reference molecules.

A431 cells = experiment: Cytotoxicity test, MTT assay (Test Example 7); format: cell-based; settings: 1×10^−5 M, DMSO (1%) reference, incubation for 6 hours
Text: To evaluate whether the two-photon dyes of the present invention are cytotoxic or not, MTT assay was done on the two-photon dye prepared in Example 1. Specifically, A431 cells were stained with TPD1 (1×10^−5 M) and DMSO (1%) was used as a reference solvent. […] Therefore, it can be concluded that the two-photon dye of the present invention is suitable for imaging of living cells.

## CCCCCCCCCC(=O)/C=C/c1ccc2cc(N(C)CC(=O)OC(C)(C)C)ccc2c1 [TPD4]
[1]; stained liposomes
  fluorescence intensity of DOPC liposomes relative to DPPC liposomes: ⅛
[2]; THF<DMF<ethanol<ethanol/water
  fluorescence intensity as the polarity of the solvents increased: reduced drastically

## CCCCCCCCCCCC(=O)c1ccc2cc(N(C)C)ccc2c1 [Laurdan, reference compound]
[1]
  fluorescence wavelength (peaks): 439 nm and 484 nm
  maximum fluorescence wavelength: 440 nm
[3]; cell membranes
  fluorescence emitted in lipid raft domains in a hydrophobic environment: 400 to 460 nm
  fluorescence emitted in phospholipid domains in a hydrophilic environment: 470 to 530 nm
[3]; water
  fluorescence emitted by the precipitate: 450 nm
  solubility in water: barely soluble in water
[4]; solvent DMF
  Φ (quantum yield): 1.00
  δmax (two-photon absorption efficiency): 50 GM
  λ^(2)max (two-photon maximum absorption wavelength): 780
  λ^flmax (one-photon maximum emission wavelength): 454
  λmax (one-photon maximum absorption wavelength): 356
[4]; solvent ethanol
  Φ (quantum yield): 1.00
  δmax (two-photon absorption efficiency): 57 GM
  λ^(2)max (two-photon maximum absorption wavelength): 780
  λ^flmax (one-photon maximum emission wavelength): 487
  λmax (one-photon maximum absorption wavelength): 363
[4]; solvent hexane
  Φ (quantum yield): 0.11
  λ^flmax (one-photon maximum emission wavelength): 407
  λmax (one-photon maximum absorption wavelength): 344
[4]; solvent water
  Φ (quantum yield): 0.01
  λ^flmax (one-photon maximum emission wavelength): 431
  λmax (one-photon maximum absorption wavelength): 354
[4]
  quantum yield in water relative to that in ethanol: 1/100
[2]; water
  solubility in water: substantially insoluble in water
  wavelength of light emitted in water: 400-460 nm
[2]; water versus less polar solvents
  maximum fluorescence wavelength in water with the highest polarity: decreased (i.e. blue-shifted)

## CCCCCCCCCCCC(=O)c1ccc2cc(N(C)CC(=O)O)ccc2c1 [TPD1]
A431 cells
  cytotoxicity (cell viability, MTT) versus reference solvent: no significant difference in cytotoxicity
[1]
  fluorescence wavelength (peaks): 486 nm
  maximum fluorescence wavelength: 442 nm
[1]; in all liposomes
  fluorescence intensity relative to Laurdan: 2-5 times
[4]
  two-photon absorption efficiency relative to the dye of Comparative Example 1: about three to six times
  quantum yield in water relative to that in ethanol: ¼
[4]; over the solvents
  two-photon absorption efficiency, maximum: 323 GM
  two-photon absorption efficiency, minimum: 153 GM
[4]; solvent DMF
  Φ (quantum yield): 0.36
  δmax (two-photon absorption efficiency): 167 GM
  λ^(2)max (two-photon maximum absorption wavelength): 780
  λ^flmax (one-photon maximum emission wavelength): 446
  λmax (one-photon maximum absorption wavelength): 363
[4]; solvent ethanol
  Φ (quantum yield): 0.43
  δmax (two-photon absorption efficiency): 153 GM
  λ^(2)max (two-photon maximum absorption wavelength): 780
  λ^flmax (one-photon maximum emission wavelength): 494
  λmax (one-photon maximum absorption wavelength): 383
[4]; solvent hexane
  Φ (quantum yield): 0.10
  λ^flmax (one-photon maximum emission wavelength): 404
  λmax (one-photon maximum absorption wavelength): 345
[4]; solvent water
  Φ (quantum yield): 0.11
  δmax (two-photon absorption efficiency): 323 GM
  λ^(2)max (two-photon maximum absorption wavelength): 820
  λ^flmax (one-photon maximum emission wavelength): 522
  λmax (one-photon maximum absorption wavelength): 384
[2]; hexane<DMF<ethanol<water
  maximum fluorescence wavelength as the polarity of the solvents increased: increased
